Data as given in patent US10508104B2, “6-hydroxy-5-(phenyl/heteroarylsulfonyl)pyrimidin-4(1H)-one as APJ agonists” (Bristol-Myers Squibb Company, priority 2016, dated 2019).
Read-outs that look alike come from different tables or passages of the source.

Target: human APJ receptor (Homo sapiens (Human), UniProt P35414)
Test: Intracellular cAMP accumulation assay (APJ hcAMP, HTRF)
Type: cell-based
Settings: read-out: Human APJ cAMP EC50 Potency range
How it was run: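 HEK293 cells stably expressing human APJ, 5,000 per well, incubated 30 min at rt with compound, […] and 2 μM forskolin. cAMP measured by HTRF against a cAMP standard curve as inhibition of forskolin-driven production. EC50 from variable-slope sigmoidal fit.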

[1] = HEK293 cells stably expressing human APJ receptor, inhibition of forskolin-mediated cAMP production

Sequence of human APJ receptor (P35414 whole entry): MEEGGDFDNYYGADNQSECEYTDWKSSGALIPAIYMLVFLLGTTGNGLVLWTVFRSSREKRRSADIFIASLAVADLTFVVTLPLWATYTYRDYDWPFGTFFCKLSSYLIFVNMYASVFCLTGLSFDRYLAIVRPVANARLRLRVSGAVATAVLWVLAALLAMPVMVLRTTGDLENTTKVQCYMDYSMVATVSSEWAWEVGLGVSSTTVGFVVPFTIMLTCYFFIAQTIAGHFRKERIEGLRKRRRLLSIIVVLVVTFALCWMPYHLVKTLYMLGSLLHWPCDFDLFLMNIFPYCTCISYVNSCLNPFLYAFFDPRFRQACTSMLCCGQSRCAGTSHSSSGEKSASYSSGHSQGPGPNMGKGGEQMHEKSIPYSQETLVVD

| Compound | EC50 (human APJ, cAMP accumulation) [nM] | EC50 [1] [nM] |
| --- | --- | --- |
| CCOCc1nc(=O)c(S(=O)(=O)c2ccc(-c3ccc(F)nc3C)c(F)c2)c(O)n1[C@@H](COC)c1cccc(C#N)c1 [Example 344, 3-[(1R)-1-[2-(ethoxymethyl)-5-[3-fluoro-4-(6-fluoro-2-methylpyridin-3-yl)benzenesulfonyl]-6-hydroxy-4-oxo-1,4-dihydropyrimidin-1-yl]-2-methoxyethyl] benzonitrile] | 0.01 to 10 | – |
| CCOCc1nc(=O)c(S(=O)(=O)c2ccc(-c3ccncc3C)c(F)c2)c(O)n1[C@@H](COC)c1cccc(C#N)c1 [Example 345, 3-[(1R)-1-[2-(ethoxymethyl)-5-[3-fluoro-4-(3-methylpyridin-4-yl)benzenesulfonyl]-6-hydroxy-4-oxo-1,4-dihydropyrimidin-1-yl]-2-methoxyethyl] benzonitrile] | 0.01 to 10 | – |
| CCOCc1nc(=O)c(S(=O)(=O)c2ccc(-c3ccnc(F)c3C)c(F)c2)c(O)n1C(COC)c1cccc(F)c1 (stereo not drawn) [Example 346, 2-(ethoxymethyl)-5-[3-fluoro-4-(2-fluoro-3-methylpyridin-4-yl)benzenesulfonyl]-1-[1-(3-fluorophenyl)-2-methoxyethyl]-6-hydroxy-1,4-dihydropyrimidin-4-one] | 0.01 to 10 | – |
| CCOCc1nc(=O)c(S(=O)(=O)c2ccc(-c3ccc(F)nc3C)c(F)c2)c(O)n1C(COC)c1cccc(F)c1 (stereo not drawn) [Example 347, 2-(ethoxymethyl)-5-[3-fluoro-4-(6-fluoro-2-methylpyridin-3-yl)benzenesulfonyl]-1-[1-(3-fluorophenyl)-2-methoxyethyl]-6-hydroxy-1,4-dihydropyrimidin-4-one] | 0.01 to 10 | – |
| CCCCc1nc(=O)c(S(=O)(=O)c2ccc(C3CC3)cc2)c(O)n1[C@@H](CC)c1cccc(C#N)c1 [Example 348, 3-[(1S)-1-[2-butyl-5-(4-cyclopropylbenzene-sulfonyl)-6-hydroxy-4-oxo-1,4-dihydropyrimidin-1-yl]propyl]benzonitrile] | 0.01 to 10 | – |
| COC[C@@H](c1ccccc1)n1c(C2CCCO2)nc(=O)c(S(=O)(=O)c2ccc(Br)cc2)c1O (stereo partly drawn) [Example 349, 5-(4-bromobenzenesulfonyl)-6-hydroxy-1-[(1R)-2-methoxy-1-phenylethyl]-2-(oxolan-2-yl)-1,4-dihydropyrimidin-4-one] | 100 to 300 | – |
| C=C(c1cccc(C#N)c1)n1c(CCCC)nc(=O)c(S(=O)(=O)c2ccc(-c3ccncc3C)cc2)c1O [Example 360, 3-(1-(2-butyl-6-hydroxy-5-((4-(3-methylpyridin-4-yl)phenyl)sulfonyl)-4-oxopyrimidin-1 (4H)-yl)vinyl)benzonitrile] | – | 0.01 to 10 |
| CCOCc1nc(=O)c(S(=O)(=O)c2ccc(C(C)(C)C)cc2)c(O)n1-c1c(CC)cccc1CC [Example 361, 5-(4-tert-butylbenzenesulfonyl)-1-(2,6-diethylphenyl)-2-(ethoxymethyl)-6-hydroxy-1,4-dihydropyrimidin-4-one] | – | 0.01 to 10 |
| CCCCc1nc(=O)c(S(=O)(=O)c2ccc(C(C)(C)C)cc2)c(O)n1-c1c(CC)cccc1CC [Example 362, 2-butyl-5-(4-tert-butylbenzenesulfonyl)-1-(2,6-diethylphenyl)-6-hydroxy-1,4-dihydropyrimidin-4-one] | – | 0.01 to 10 |
| CCCCc1nc(=O)c(S(=O)(=O)c2ccc(C(C)(C)C)cc2)c(O)n1-c1c(OC)cccc1OC [Example 363, 2-butyl-5-(4-tert-butylbenzenesulfonyl)-1-(2,6-dimethoxyphenyl)-6-hydroxy-1,4-dihydropyrimidin-4-one] | – | 0.01 to 10 |
| CCCCc1nc(=O)c(S(=O)(=O)[C@H]2CC[C@H](OCc3ccccc3)CC2)c(O)n1-c1c(CC)cccc1CC [Example 364, 2-butyl-1-(2,6-diethylphenyl)-6-hydroxy-5-{[(1r,4r)-4-(benzyloxy)cyclohexyl]sulfonyl}-1,4-dihydropyrimidin-4-one] | – | 0.01 to 10 |
| CCCCc1nc(=O)c(S(=O)(=O)[C@H]2CC[C@@H](OCc3ccccc3)CC2)c(O)n1-c1c(CC)cccc1CC [Example 365, 2-butyl-1-(2,6-diethylphenyl)-6-hydroxy-5-{[(1s,4s)-4-(benzyloxy)cyclohexyl]sulfonyl}-1,4-dihydropyrimidin-4-one] | – | 0.01 to 10 |
| CCCCc1nc(=O)c(S(=O)(=O)[C@H]2CC[C@H](OCc3ccccc3)CC2)c(O)n1-c1c(OC)cccc1OC [Example 366, 2-butyl-1-(2,6-dimethoxyphenyl)-6-hydroxy-5-{[(1r,4r)-4-(benzyloxy)cyclohexyl]sulfonyl}-1,4-dihydropyrimidin-4-one] | – | 0.01 to 10 |
| CCCCc1nc(=O)c(S(=O)(=O)[C@H]2CC[C@@H](OCc3ccccc3)CC2)c(O)n1-c1c(OC)cccc1OC [Example 367, 2-butyl-1-(2,6-dimethoxyphenyl)-6-hydroxy-5-{[(1s,4s)-4-(benzyloxy)cyclohexyl]sulfonyl}-1,4-dihydropyrimidin-4-one] | – | 0.01 to 10 |
| COC[C@@H](c1cc(F)cc(F)c1)n1c(COC(C)C)nc(=O)c(S(=O)(=O)c2ccc(Br)cc2)c1O [Example 368, 5-(4-bromobenzenesulfonyl)-1-[(1R)-1-(3,5-difluorophenyl)-2-methoxyethyl]-6-hydroxy-2-[(propan-2-yloxy)methyl]-1,4-dihydropyrimidin-4-one] | – | 0.01 to 10 |
| CC[C@@H](c1cccc(C#N)c1)n1c(COC(C)C)nc(=O)c(S(=O)(=O)c2ccc(Br)cc2)c1O [Example 369, 3-[(1S)-1-[5-(4-bromobenzenesulfonyl)-6-hydroxy-4-oxo-2-[(propan-2-yloxy)methyl]-1,4-dihydropyrimidin-1-yl]propyl]benzonitrile] | – | 0.01 to 10 |
| CCOCc1nc(=O)c(S(=O)(=O)c2ccc(Br)cc2)c(O)n1[C@@H](COC)c1cc(F)cc(F)c1 [Example 370, 5-(4-bromobenzenesulfonyl)-1-[(1R)-1-(3,5-difluorophenyl)-2-methoxyethyl]-2-(ethoxymethyl)-6-hydroxy-1,4-dihydropyrimidin-4-one] | – | 0.01 to 10 |
| COC[C@@H](c1cccc(C#N)c1)n1c(COC(C)C)nc(=O)c(S(=O)(=O)c2ccc(Br)cc2)c1O [Example 371, 3-[(1R)-1-[5-(4-bromobenzenesulfonyl)-6-hydroxy-4-oxo-2-[(propan-2-yloxy)methyl]-1,4-dihydropyrimidin-1-yl]-2-methoxyethyl]benzonitrile] | – | 0.01 to 10 |
| CC(C)OCc1nc(=O)c(S(=O)(=O)c2ccc(Br)cc2)c(O)n1[C@H](c1cccc(C#N)c1)C1CC1 [Example 372, 3-[(S)-[5-(4-bromobenzenesulfonyl)-6-hydroxy-4-oxo-2-[(propan-2-yloxy)methyl]-1,4-dihydropyrimidin-1-yl](cyclopropyl)methyl] benzonitrile] | – | 0.01 to 10 |
| CCOCc1nc(=O)c(S(=O)(=O)c2ccc(-c3ccnc(F)c3C)c(F)c2)c(O)n1C(COC)c1cccc(F)c1 (stereo not drawn) [Example 373, 2-(ethoxymethyl)-5-[3-fluoro-4-(2-fluoro-3-methylpyridin-4-yl)benzenesulfonyl]-1-[1-(3-fluorophenyl)-2-methoxyethyl]-6-hydroxy-1,4-dihydropyrimidin-4-one] | – | 0.01 to 10 |
| CCOCc1nc(=O)c(S(=O)(=O)c2ccc(-c3ccnc(F)c3C)c(F)c2)c(O)n1C(COC)c1cccc(F)c1 (stereo not drawn) [Example 374, 2-(ethoxymethyl)-5-[3-fluoro-4-(2-fluoro-3-methylpyridin-4-yl)benzenesulfonyl]-1-[1-(3-fluorophenyl)-2-methoxyethyl]-6-hydroxy-1,4-dihydropyrimidin-4-one] | – | 0.01 to 10 |
| CCOCc1nc(=O)c(S(=O)(=O)c2ccc(-c3ccc(F)nc3C)c(F)c2)c(O)n1C(COC)c1cccc(F)c1 (stereo not drawn) [Example 375, 2-(ethoxymethyl)-5-[3-fluoro-4-(6-fluoro-2-methylpyridin-3-yl)benzenesulfonyl]-1-[1-(3-fluorophenyl)-2-methoxyethyl]-6-hydroxy-1,4-dihydropyrimidin-4-one] | – | 0.01 to 10 |
| CCOCc1nc(=O)c(S(=O)(=O)c2ccc(-c3ccc(F)nc3C)c(F)c2)c(O)n1C(COC)c1cccc(F)c1 (stereo not drawn) [Example 376, 2-(ethoxymethyl)-5-[3-fluoro-4-(6-fluoro-2-methylpyridin-3-yl)benzenesulfonyl]-1-[1-(3-fluorophenyl)-2-methoxyethyl]-6-hydroxy-1,4-dihydropyrimidin-4-one] | – | 0.01 to 10 |
| COC[C@@H](c1cc(F)cc(F)c1)n1c(COC(C)C)nc(=O)c(S(=O)(=O)c2ccc(-c3ccncc3C)cc2)c1O [Example 377, 1-[(1R)-1-(3,5-difluorophenyl)-2-methoxyethyl]-6-hydroxy-5-[4-(3-methylpyridin-4-yl)benzenesulfonyl]-2-[(propan-2-yloxy)methyl]-1,4-dihydropyrimidin-4-one] | – | 0.01 to 10 |
| COC[C@@H](c1cc(F)cc(F)c1)n1c(COC(C)C)nc(=O)c(S(=O)(=O)c2ccc(-c3ccnc(F)c3C)cc2)c1O [Example 378, 1-[(1R)-1-(3,5-difluorophenyl)-2-methoxyethyl]-5-[4-(2-fluoro-3-methylpyridin-4-yl)benzenesulfonyl]-6-hydroxy-2-[(propan-2-yloxy)methyl]-1,4-dihydropyrimidin-4-one] | – | 0.01 to 10 |
| COC[C@@H](c1cc(F)cc(F)c1)n1c(COC(C)C)nc(=O)c(S(=O)(=O)c2ccc(-c3cccnc3C)cc2)c1O [Example 379, 1-[(1R)-1-(3,5-difluorophenyl)-2-methoxyethyl]-6-hydroxy-5-[4-(2-methylpyridin-3-yl)benzenesulfonyl]-2-[(propan-2-yloxy)methyl]-1,4-dihydropyrimidin-4-one] | – | 0.01 to 10 |
| COC[C@@H](c1cc(F)cc(F)c1)n1c(COC(C)C)nc(=O)c(S(=O)(=O)c2ccc(-c3ccc(F)nc3C)cc2)c1O [Example 380, 1-[(1R)-1-(3,5-difluorophenyl)-2-methoxyethyl]-5-[4-(6-fluoro-2-methylpyridin-3-yl)benzenesulfonyl]-6-hydroxy-2-[(propan-2-yloxy)methyl]-1,4-dihydropyrimidin-4-one] | – | 0.01 to 10 |
